Results from ChEMBL document CHEMBL5244271, “Targeted Drugs for Treatment of Pulmonary Arterial Hypertension: Past, Present, and Future Perspectives” (J Med Chem, 2020).
pIC50: −log10 of the molar value.

Legend:
[1] = Activation of rabbit sGC assessed as induction of preconstricted aortic ring relaxation; conditions: Oryctolagus cuniculus
[2] = Half life in human; assay type: ADME
[3] = Tmax in human; assay type: ADME
[4] = target: T1, Endothelin receptor type B (Homo sapiens, UniProt P24530); test: Binding affinity to human placenta ETB; assay type: tissue-based
T1 sequence (P24530 whole entry): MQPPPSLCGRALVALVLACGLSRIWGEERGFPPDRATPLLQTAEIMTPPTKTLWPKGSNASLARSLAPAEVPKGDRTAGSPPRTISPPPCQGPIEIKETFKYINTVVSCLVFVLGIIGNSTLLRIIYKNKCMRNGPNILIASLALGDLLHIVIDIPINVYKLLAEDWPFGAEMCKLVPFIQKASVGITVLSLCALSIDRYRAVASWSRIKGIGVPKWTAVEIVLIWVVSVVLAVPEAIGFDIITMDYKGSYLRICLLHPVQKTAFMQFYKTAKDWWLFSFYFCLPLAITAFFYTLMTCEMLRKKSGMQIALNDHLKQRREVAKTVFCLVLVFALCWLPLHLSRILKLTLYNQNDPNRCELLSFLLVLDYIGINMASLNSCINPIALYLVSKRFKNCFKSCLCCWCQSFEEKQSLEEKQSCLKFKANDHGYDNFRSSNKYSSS

[5] = target: T2, Endothelin-1 receptor (Homo sapiens, UniProt P25101); test: Binding affinity to recombinant human ETA
T2 sequence (P25101 whole entry): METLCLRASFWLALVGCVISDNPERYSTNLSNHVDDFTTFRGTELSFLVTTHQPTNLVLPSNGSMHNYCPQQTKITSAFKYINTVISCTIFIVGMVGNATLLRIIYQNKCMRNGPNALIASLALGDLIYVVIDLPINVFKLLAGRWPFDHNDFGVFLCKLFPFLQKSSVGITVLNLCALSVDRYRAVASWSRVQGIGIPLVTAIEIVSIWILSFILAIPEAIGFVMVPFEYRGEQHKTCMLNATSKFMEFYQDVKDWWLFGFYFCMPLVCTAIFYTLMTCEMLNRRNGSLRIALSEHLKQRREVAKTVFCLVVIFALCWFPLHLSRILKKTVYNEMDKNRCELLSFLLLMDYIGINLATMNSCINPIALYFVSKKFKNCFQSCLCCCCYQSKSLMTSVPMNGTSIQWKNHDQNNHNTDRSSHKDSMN

[6] = Half life in po dosed human; assay type: ADME, organism-based; conditions: in vivo
[7] = Tmax in po dosed human; assay type: ADME, organism-based; conditions: in vivo

| pIC50 [1] | half-life [2] [h] | Structure (SMILES) | further results |
| --- | --- | --- | --- |
| 5.31 |  | OCc1ccc(-c2nn(Cc3ccccc3F)c3ccccc23)o1 |  |
|  | 12.3 | CCCOc1ccc(S(=O)(=O)NCCC2CCCN2C)cc1-c1nc2c(CCC)nn(C)c2c(=O)[nH]1 (stereo not drawn) | Tmax [3]: 0.8 h |
| 5.77 |  | OCc1ccc(-c2nn(Cc3ccccc3F)c3ncccc23)o1 |  |
|  | 30 | NC(=O)[C@](O)(CNc1nc(-c2cc(-c3ccon3)n(Cc3ccccc3F)n2)ncc1F)C(F)(F)F [OLINCIGUAT] | Tmax [3]: 2 h |
|  | 17.5 | CN1CC(=O)N2[C@H](c3ccc4c(c3)OCO4)c3[nH]c4ccccc4c3C[C@@H]2C1=O |  |
| 6.52 |  | Nc1nc(-c2nn(Cc3ccccc3F)c3ncccc23)ncc1C1CC1 |  |
| 6.57 |  | Nc1ccnc(-c2nn(Cc3ccccc3F)c3ncccc23)n1 |  |
|  | 24 | OC(CNc1nc(-c2cc(-c3ccon3)n(Cc3ccccc3F)n2)ncc1F)(C(F)(F)F)C(F)(F)F |  |
| 5.00 |  | OCc1ccc(-c2nn(Cc3ccccc3)c3ccccc23)o1 |  |
|  |  | O=S(=O)(Nc1ncnc(OCCO)c1-c1ccccc1)c1ccc(C(F)(F)F)cc1 | pIC50 [4]: 5.70; pIC50 [5]: 4.74 |
|  | 24 | O=C(O)COC[C@H]1CC[C@H](COC(=O)N(c2ccccc2)c2ccc(Cl)cc2)CC1 |  |

| Structure (SMILES) | pIC50 [1] | half-life [2] [h] | further results |
| --- | --- | --- | --- |
| Nc1nc(-c2nn(Cc3ccccc3F)c3ncccc23)nc(N)c1N1CCOCC1 | 7.00 |  |  |
| COC(=O)N(C)c1c(N)nc(-c2nn(Cc3ccccc3F)c3ncccc23)nc1N [RIOCIGUAT] | 6.92 |  | half-life [6]: 5 h; Tmax [7]: 0.5 h |
